From patent US11000033B2, “Ketone or oxime compound, and herbicide” (NISSAN CHEMICAL CORPORATION, priority 2014, dated 2021)

What was measured:
Type in all cases: in vivo
beet [1] = assay: Test Example 4: effect on crop by soil treatment (symbol f); conditions: application herbicide amount 320 g/ha
Method in brief: (§1)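 Grown at 25° C. to 30° C. in a greenhouse, the crops came from seed sown spot-wise in sterilized diluvial soil under roughly 1.5 cm of covering soil.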

Setaria viridis = assay: Test Example 5: herbicidal effect by foliage application, plastic box (symbol G); conditions: 320 g/ha, 3 weeks after application
Method in brief: (§2)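 Visual herbicidal score, taken three weeks post-application, of seedlings sprayed on the foliage with water-diluted emulsion at a predetermined amount; plants were 14 days old, greenhouse-raised at 25° C. to 30° C.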

Veronica persica = assay: Test Example 5: herbicidal effect by foliage application, plastic box (symbol R); conditions: 320 g/ha, 3 weeks after application
Method in brief: as §2

Galium spurium = assay: Test Example 5: herbicidal effect by foliage application, plastic box (symbol Q); conditions: 320 g/ha, 3 weeks after application
Method in brief: as §2

wheat = assay: Test Example 4: effect on crop by soil treatment (symbol e); conditions: application herbicide amount 320 g/ha
Method in brief: as §1

[2] = tested on: directly sowed rice plant; assay: Test Example 3: effect on crop by foliage application, Wagner pot (symbol b); conditions: application herbicide amount 320 g/ha
Method in brief: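 Wagner pot (1/10000 are), alluvial soil, submerged 0.1–0.5 cm; sown E. crus-galli var. crus-galli, L. chinensis, C. difformis, rice; greenhouse 25–30 °C.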

Alopecurus myosuroides = assay: Test Example 5: herbicidal effect by foliage application, plastic box (symbol J); conditions: 320 g/ha, 3 weeks after application
Method in brief: as §2

Abutilon theophrasti = assay: Test Example 4: herbicidal effect by soil treatment (symbol M); conditions: application herbicide amount 320 g/ha
Method in brief: (§3)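 Seeds were sown in sterilized diluvial soil, covered with about 1.5 cm of soil, and the soil surface was sprayed with a water-diluted emulsion of the compound at a predetermined rate. Plants grew in a greenhouse at 25° C. to 30° C.; effects were scored visually 3 weeks after application.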

Digitaria ciliaris [3] = assay: Test Example 4: herbicidal effect by soil treatment (symbol F); conditions: application herbicide amount 320 g/ha
Method in brief: as §3

[4] = tested on: Echinochloa crus-galli var. crus-galli; assay: Test Example 4: herbicidal effect by soil treatment (symbol H); conditions: application herbicide amount 320 g/ha
Method in brief: as §3

Digitaria ciliaris [5] = assay: Test Example 5: herbicidal effect by foliage application, plastic box (symbol F); conditions: 320 g/ha, 3 weeks after application
Method in brief: as §2

Cyperus difformis = assay: Test Example 3: herbicidal effect by foliage application, Wagner pot (symbol E); conditions: application herbicide amount 320 g/ha
Method in brief: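 Plants sown in submerged alluvial soil (water depth 0.1–0.5 cm) in a 25–30 °C greenhouse and grown 14 days. An emulsion of the compound diluted in water to a set herbicide amount was sprayed uniformly on foliage. Effect on each plant scored 3 weeks after application.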

[6] = tested on: Echinochloa oryzacola Vasing.; assay: Test Example 2: herbicidal activity, application during weed generation in submerged conditions (symbol A); conditions: Table 23; application herbicide amount 320 g/ha; grade 0-5 by criteria of Test Example 1
Method in brief: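 Seeds sown in flooded alluvial soil (4 cm water) were grown in a 25-30° C greenhouse. At the one- to two-leaf stage, diluted emulsion of compound was applied to the water surface at a predetermined rate. Effect was scored 3 weeks later.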

beet [7] = assay: Test Example 5: effect on crop by foliage application, plastic box (symbol f); conditions: 320 g/ha, 3 weeks after application
Method in brief: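 Crop and weed seeds sown in spots in sterilized diluvial soil in plastic boxes and covered with about 1.5 cm soil. Plants raised in a greenhouse at 25° C. to 30° C. for foliar application.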

Apera spica-venti = assay: Test Example 5: herbicidal effect by foliage application, plastic box (symbol L); conditions: 320 g/ha, 3 weeks after application
Method in brief: as §2

corn = assay: Test Example 4: effect on crop by soil treatment (symbol c); conditions: application herbicide amount 320 g/ha
Method in brief: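 Greenhouse culture at 25° C. to 30° C. followed sowing of seed in spots on sterilized diluvial soil with a soil cover close to 1.5 cm thick.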

rice = assay: Test Example 4: effect on crop by soil treatment (symbol b); conditions: application herbicide amount 320 g/ha
Method in brief: as §1

Lolium multiflorum Lam. = assay: Test Example 4: herbicidal effect by soil treatment (symbol K); conditions: application herbicide amount 320 g/ha
Method in brief: as §3

Row | SMILES | f (beet) effect on crop grade (beet [1]) | G: Setaria viridis, herbicidal effect grade (Setaria viridis) | R: Veronica persica, herbicidal effect grade (Veronica persica) | Q: Galium spurium, herbicidal effect grade (Galium spurium) | e (wheat) effect on crop grade (wheat) | effect on crop b (directly sowed rice plant), grade 0-5 [2] | J: Alopecurus myosuroides, herbicidal effect grade (Alopecurus myosuroides) | M (Abutilon theophrasti) herbicidal effect grade (Abutilon theophrasti) | F (Digitaria ciliaris) herbicidal effect grade (Digitaria ciliaris [3]) | H (Echinochloa crus-galli var. crus-galli) herbicidal effect grade [4] | F: Digitaria ciliaris, herbicidal effect grade (Digitaria ciliaris [5]) | herbicidal effect on E, grade 0-5 (Cyperus difformis) | Herbicidal effect grade, A: Echinochloa oryzacola Vasing. [6] | f: beet, effect on crop grade (beet [7]) | L: Apera spica-venti, herbicidal effect grade (Apera spica-venti) | c (corn) effect on crop grade (corn) | b (directly sowed rice plant) effect on crop grade (rice) | K (Lolium multiflorum Lam.) herbicidal effect grade (Lolium multiflorum Lam.)
1 | CON=C(CC1CC(O)=C(c2c(C)cc(C)cc2C)C1=O)c1ccccn1 (stereo not drawn) [1-045] | 0 (Herbicidal ratio of 5% or lower (almost no effect)) | 5 (Herbicidal ratio of 90% or more (almost completely withered)) | 0 (Herbicidal ratio of 5% or lower (almost no effect)) | 0 (Herbicidal ratio of 5% or lower (almost no effect)) | 0 (Herbicidal ratio of 5% or lower (almost no effect)) | 3 (Herbicidal ratio of 40% or higher and lower than 70%) | 5 (Herbicidal ratio of 90% or more (almost completely withered)) | 0 (Herbicidal ratio of 5% or lower (almost no effect)) | 0 (Herbicidal ratio of 5% or lower (almost no effect)) | 0 (Herbicidal ratio of 5% or lower (almost no effect)) | 4 (Herbicidal ratio of 70% or higher and lower than 90%) | 0 (Herbicidal ratio of 5% or lower (almost no effect)) | 3 (Herbicidal ratio of 40% or higher and lower than 70%) | 0 (Herbicidal ratio of 5% or lower (almost no effect)) | 5 (Herbicidal ratio of 90% or more (almost completely withered)) | 0 (Herbicidal ratio of 5% or lower (almost no effect)) | 0 (Herbicidal ratio of 5% or lower (almost no effect)) | 4 (Herbicidal ratio of 70% or higher and lower than 90%)
2 | CON=C(C)C(c1ccc(F)cc1)C1CC(O)=C(c2c(C)cc(C)cc2C)C1=O (stereo not drawn) [1-049] | 0 (Herbicidal ratio of 5% or lower (almost no effect)) | 0 (Herbicidal ratio of 5% or lower (almost no effect)) | 0 (Herbicidal ratio of 5% or lower (almost no effect)) | 0 (Herbicidal ratio of 5% or lower (almost no effect)) | 0 (Herbicidal ratio of 5% or lower (almost no effect)) | 0 (Herbicidal ratio of 5% or lower (almost no effect)) | 0 (Herbicidal ratio of 5% or lower (almost no effect)) | 0 (Herbicidal ratio of 5% or lower (almost no effect)) | 0 (Herbicidal ratio of 5% or lower (almost no effect)) | 0 (Herbicidal ratio of 5% or lower (almost no effect)) | 0 (Herbicidal ratio of 5% or lower (almost no effect)) | 0 (Herbicidal ratio of 5% or lower (almost no effect)) | 0 (Herbicidal ratio of 5% or lower (almost no effect)) | 0 (Herbicidal ratio of 5% or lower (almost no effect)) | 0 (Herbicidal ratio of 5% or lower (almost no effect)) | 0 (Herbicidal ratio of 5% or lower (almost no effect)) | 0 (Herbicidal ratio of 5% or lower (almost no effect)) | 0 (Herbicidal ratio of 5% or lower (almost no effect))
3 | CCCC(CC1CC(O)=C(c2c(C)cc(C)cc2C)C1=O)=NOC (stereo not drawn) [1-062] | 0 (Herbicidal ratio of 5% or lower (almost no effect)) | 4 (Herbicidal ratio of 70% or higher and lower than 90%) | 0 (Herbicidal ratio of 5% or lower (almost no effect)) | 0 (Herbicidal ratio of 5% or lower (almost no effect)) | 0 (Herbicidal ratio of 5% or lower (almost no effect)) | 5 (Herbicidal ratio of 90% or more (almost completely withered)) | 5 (Herbicidal ratio of 90% or more (almost completely withered)) | 0 (Herbicidal ratio of 5% or lower (almost no effect)) | 5 (Herbicidal ratio of 90% or more (almost completely withered)) | 5 (Herbicidal ratio of 90% or more (almost completely withered)) | 1 (Herbicidal ratio of 5% or higher and lower than 20%) | 4 (Herbicidal ratio of 70% or higher and lower than 90%) | 3 (Herbicidal ratio of 40% or higher and lower than 70%) | 0 (Herbicidal ratio of 5% or lower (almost no effect)) | 5 (Herbicidal ratio of 90% or more (almost completely withered)) | 4 (Herbicidal ratio of 70% or higher and lower than 90%) | 5 (Herbicidal ratio of 90% or more (almost completely withered)) | 5 (Herbicidal ratio of 90% or more (almost completely withered))
4 | CON=C(C)CC1CC(OC(=O)COc2ccc(C)cc2)=C(c2c(C)cc(C)cc2C)C1=O (stereo not drawn) [1-072] | 0 (Herbicidal ratio of 5% or lower (almost no effect)) | 5 (Herbicidal ratio of 90% or more (almost completely withered)) | 3 (Herbicidal ratio of 40% or higher and lower than 70%) | 2 (Herbicidal ratio of 20% or higher and lower than 40%) | 4 (Herbicidal ratio of 70% or higher and lower than 90%) | 5 (Herbicidal ratio of 90% or more (almost completely withered)) | 5 (Herbicidal ratio of 90% or more (almost completely withered)) | 4 (Herbicidal ratio of 70% or higher and lower than 90%) | 5 (Herbicidal ratio of 90% or more (almost completely withered)) | 5 (Herbicidal ratio of 90% or more (almost completely withered)) | 5 (Herbicidal ratio of 90% or more (almost completely withered)) | 4 (Herbicidal ratio of 70% or higher and lower than 90%) | 5 (Herbicidal ratio of 90% or more (almost completely withered)) | 1 (Herbicidal ratio of 5% or higher and lower than 20%) | 5 (Herbicidal ratio of 90% or more (almost completely withered)) | 5 (Herbicidal ratio of 90% or more (almost completely withered)) | 5 (Herbicidal ratio of 90% or more (almost completely withered)) | 5 (Herbicidal ratio of 90% or more (almost completely withered))
